# Laboratory results reported in patent publication EP0490667B1, “HIV protease inhibitors” (priority 1990, dated 1992).
# Target: T1, chemically synthesized HIV protease (Human immunodeficiency virus type 1 group M subtype B, UniProt P12497, C555A/C583A)
# T1 construct: The HIV protease was chemically synthesized; made in house; host or cells: chemical synthesis (no expression host)
# Format: biochemical
# Details: inhibitor 5 µM final concentration (Tables 1-2)
# Text: The HPLC condition was as followes. Column: VYDAC 218 TP 54, C18 • Solvent A: 0.1% trifluoroacetic acid aqueous solution • Solvent B: acetonitrile • Gradient: B was increased in 1.0%/min from 100% of A,
row,Compound,Residual Activity (%)
1,"3-Phenylpropionyl-Msa-(2S,3S)-AHPBA-Pro-Ile-Val-NH2 [Example 62]",3.2
2,"Benzyloxycarbonyl-Val-(2R,3S)-AHPBA-Phe-NH-CH2-CH(CH3)2 [Example JJ]",84.9
3,"Benzyloxycarbonyl-Val-(2R,3S)-AHPBA-Phe-Val-NH-CH2-CH(CH3)2 [Example HH]",83.4
4,"PhCH2-O-CO-Asn-(2S,3S)-AHPBA-Pro-NH-CH2-C6H11 [Example 49]",51.9

# Same assay, conditions: inhibitor 1 mM (Tables 1-2)
row,Compound,Residual Activity (%)
1,"Furancarbonyl-Asn-(2S,3S)-AHPBA-Pro-Ile-Val-NH2 [Example 65]",9.3
2,"Thiophenecarbonyl-Asn-(2S,3S)-AHPBA-Pro-Ile-Val-NH2 [Example 67]",4.9

# Same assay, conditions: inhibitor 1mM as headed in Tables 3-6
row,Compound,Residual Activity (%)
1,"1-Naphthoxyacetyl-Msa-(2S,3S)-AHPBA-Thz-NH-chex-ol [Example 158]",<10
2,"Benzyloxycarbonyl-Asn-(2S,3S)-AHPBA-(D)-Pip-NH-tBu [Example 79]",84.0
3,"Benzyloxycarbonyl-Asn-(2S,3S)-AHPBA-(L)-Pip-NH-tBu [Example 78]",11.7
4,"Benzyloxycarbonyl-Asn-(2S,3S)-AHPBA-Hyp(Bzl)-NH-tBu [Example 95]",34.6
5,"Benzyloxycarbonyl-Asn-(2S,3S)-AHPBA-Inc-NH-tBu [Example 96]",95.2
6,"Benzyloxycarbonyl-Asn-(2S,3S)-AHPBA-Pro-Aib-NH2 [Example 93]",<10
7,"Benzyloxycarbonyl-Asn-(2S,3S)-AHPBA-Pro-NH-CH2-C(CH3)3 [Example 83]",12.4
8,"Benzyloxycarbonyl-Asn-(2S,3S)-AHPBA-Pro-NH-CH(C2H5)2 [Example 89]",<10
9,"Benzyloxycarbonyl-Asn-(2S,3S)-AHPBA-Pro-NH-cyclopropyl [Example 88]",<10
10,"Benzyloxycarbonyl-Asn-(2S,3S)-AHPBA-Pro-NH-tAmyl [Example 87]",5.8
11,"Benzyloxycarbonyl-Asn-(2S,3S)-AHPBA-Pro-O-tBu [Example 86]",12.6
12,"Benzyloxycarbonyl-Asn-(2S,3S)-AHPBA-Thz-NH-tBu [Example 82]",1.3

# Same assay, conditions: inhibitor 5mM as headed in Tables 3-6
row,Compound,Residual Activity (%)
1,"1-Isoquinolinecarbonyl-Asn-(2S,3S)-AHPBA-Pro-NH-tBu.AcOH [Example 140]",72.8
2,"1-Naphthoxyacetyl-Asn-(2S,3S)-AHPBA-Thz-NH-cyclopentyl [Example 128]",10.5
3,"1-Naphthoxyacetyl-Msa-(2S,3S)-AHPBA-Oic-NH-tBu [Example 146]",97.5
4,"1-Naphthoxyacetyl-Msa-(2S,3S)-AHPBA-Thz-Pip-O-CH3 [Example 159]",90.8
5,"1-Naphthoxyacetyl-Mta-(2S,3S)-AHPBA-Thz-NH-tBu [Example 162]",2.9
6,"2-Quinolinecarbonyl-Asn-(2S,3S)-AHPBA-Dtc-NH-tBu [Example 118]",1.8
7,"2-Quinolinecarbonyl-Asn-(2S,3S)-AHPBA-Pro-NH-tBu [Example 138]",27.3
8,"CS(=O)(=O)C[C@H](NC(=O)COc1cccc2ccccc12)C(=O)N[C@@H](Cc1ccccc1)[C@H](O)C(=O)N1CSC[C@H]1C(=O)N[C@H](C(N)=O)c1ccccc1 [Example 157, 1-Naphthoxyacetyl-Msa-(2S,3S)-AHPBA-Thz-Phg-NH2]",93.9
9,"CC(C)(C)NC(=O)[C@@H]1CSCN1C(=O)[C@@H](O)[C@H](Cc1ccccc1)NC(=O)[C@H](CS(C)(=O)=O)NC(=O)COc1cccc(C(=O)N2CCOCC2)c1 [Example 168, m-(Morph-CO)-Ph-O-CH2-CO-Msa-(2S,3S)-AHPBA-Thz-NH-tBu]",44.5
10,"CS(=O)(=O)C[C@H](NC(=O)COc1cccc2ccccc12)C(=O)N[C@@H](Cc1ccccc1)[C@H](O)C(=O)N1CSC[C@H]1C(=O)NCC(N)=O [Example 172, 1-Naphthoxyacetyl-Msa-(2S,3S)-AHPBA-Thz-Gly-NH2]",77.9
11,"CS(=O)(=O)C[C@H](NC(=O)COc1cccc2ccccc12)C(=O)N[C@@H](Cc1ccccc1)[C@H](O)C(=O)N1CSC[C@H]1C(=O)NCCCC(N)=O [Example 173, 1-Naphthoxyacetyl-Msa-(2S,3S)-AHPBA-Thz-GABA-NH2]",65.0
12,"CC(CNC(=O)[C@@H]1CSCN1C(=O)[C@@H](O)[C@H](Cc1ccccc1)NC(=O)[C@H](CS(C)(=O)=O)NC(=O)COc1cccc2ccccc12)C(N)=O (stereo partly drawn) [Example 174, 1-Naphthoxyacetyl-Msa-(2S,3S)-AHPBA-Thz-BAIB-NH2]",46.6
13,"CC(CC(N)=O)NC(=O)[C@@H]1CSCN1C(=O)[C@@H](O)[C@H](Cc1ccccc1)NC(=O)[C@H](CS(C)(=O)=O)NC(=O)COc1cccc2ccccc12 (stereo partly drawn) [Example 175, 1-Naphthoxyacetyl-Msa-(2S,3S)-AHPBA-Thz-BANB-NH2]",33.0
14,"Benzyloxycarbonyl-Asn-(2S,3S)-AHPBA decahydroisoquinoline",8.6
15,"Benzyloxycarbonyl-Asn-(2S,3S)-AHPBA-Ccp-NH-tBu [Example 187]",99.0
16,"Benzyloxycarbonyl-Asn-(2S,3S)-AHPBA-Cpp-NH-tBu [Example 185]",96.0
17,"Benzyloxycarbonyl-Asn-(2S,3S)-AHPBA-Dmp-NH2 [Example 188]",98.1
18,"Benzyloxycarbonyl-Asn-(2S,3S)-AHPBA-Dmp-NH-tBu [Example 182]",26.8
19,"Benzyloxycarbonyl-Asn-(2S,3S)-AHPBA-Dtc-NH2 [Example 177]",74.2
20,"Benzyloxycarbonyl-Asn-(2S,3S)-AHPBA-Dtc-NH-tBu [Example 104]",3.8
21,"Benzyloxycarbonyl-Asn-(2S,3S)-AHPBA-Pdp-NH-tBu [Example 164]",49.8
22,"Benzyloxycarbonyl-Asn-(2S,3S)-AHPBA-Php-NH-tBu [Example 184]",16.8
23,"Benzyloxycarbonyl-Asn-(2S,3S)-AHPBA-Pro-NH-C(CH3)2-CH2-OH [Example 99]",62.2
24,"Benzyloxycarbonyl-Asn-(2S,3S)-AHPBA-Pro-NH-sBu [Example 176]",82.6
25,"Benzyloxycarbonyl-Asn-(2S,3S)-AHPBA-Tcp-NH-tBu [Example 186]",99.5
26,"Bis(4-chlorophenyl)methyloxyacetyl-Asn-(2S,3S)-AHPBA-Pro-NH-tBu [Example 94]",37.0
27,"PhCH2-O-CO-Asn-(2S,3S)-AHPBA-(D)-Tic-NH-tBu [Example 103]",91.4
28,"PhCH2-O-CO-Asn-(2S,3S)-ASPBA-(L)-Tic-NH-tBu [Example 102]",89.2
29,"m-(Piper-CO-)Ph-O-CH2-CO-Msa-(2S,3S)-AHPBA-Thz-NH-tBu [Example 167]",25.4
30,"m-Isopropyloxyphenoxyacetyl-Msa-(2S,3S)-AHPBA-Dtc-NH-tBu [Example 166]",2.0
